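Protocol summary: plate cells (96-well), add compound at 5 concentrations, incubate 48 h, interpolate endpoints linearly. TGI is the concentration that stops growth completely.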
Columns and labels:
Assay in all cases: DTP human tumour cell line panel, 48 h
786-0 renal = system: 786-0 renal
A498 renal = system: A498 renal
A549 NSCLC = system: A549 NSCLC
ACHN renal = system: ACHN renal
BT-549 breast = system: BT-549 breast
CAKI-1 renal = system: CAKI-1 renal
CCRF-CEM leukemia = system: CCRF-CEM leukemia
COLO 205 colon = system: COLO 205 colon
DLD-1 colon = system: DLD-1 colon
DMS 114 small cell lung = system: DMS 114 small cell lung
DMS 273 small cell lung = system: DMS 273 small cell lung
DU-145 prostate = system: DU-145 prostate
EKVX NSCLC = system: EKVX NSCLC
HCC-2998 colon = system: HCC-2998 colon
HCT-116 colon = system: HCT-116 colon
HCT-15 colon = system: HCT-15 colon
HOP-62 NSCLC = system: HOP-62 NSCLC
HOP-92 NSCLC = system: HOP-92 NSCLC
HS 578T breast = system: HS 578T breast
HT29 colon = system: HT29 colon
IGROV1 ovarian = system: IGROV1 ovarian
K-562 leukemia = system: K-562 leukemia
KM12 colon = system: KM12 colon
KM20L2 colon = system: KM20L2 colon
LOX IMVI melanoma = system: LOX IMVI melanoma
LXFL 529 NSCLC = system: LXFL 529 NSCLC
M14 melanoma = system: M14 melanoma
M19-MEL melanoma = system: M19-MEL melanoma
MALME-3M melanoma = system: MALME-3M melanoma
MCF7 breast = system: MCF7 breast
MDA-MB-231 breast = system: MDA-MB-231 breast
MDA-MB-435 = system: MDA-MB-435
MDA-N = system: MDA-N
MOLT-4 leukemia = system: MOLT-4 leukemia
NCI-H226 lung = system: NCI-H226 lung
NCI-H23 lung = system: NCI-H23 lung
NCI-H460 lung = system: NCI-H460 lung
NCI-H522 lung = system: NCI-H522 lung
NCI/ADR-RES ovarian = system: NCI/ADR-RES ovarian
OVCAR-3 ovarian = system: OVCAR-3 ovarian
OVCAR-4 ovarian = system: OVCAR-4 ovarian
OVCAR-5 ovarian = system: OVCAR-5 ovarian
OVCAR-8 ovarian = system: OVCAR-8 ovarian
PC-3 prostate = system: PC-3 prostate
RPMI-8226 leukemia = system: RPMI-8226 leukemia
RXF 393 renal = system: RXF 393 renal
RXF-631 renal = system: RXF-631 renal
SF-268 CNS = system: SF-268 CNS
SF-295 CNS = system: SF-295 CNS
SF-539 CNS = system: SF-539 CNS
SK-MEL-2 melanoma = system: SK-MEL-2 melanoma
SK-MEL-28 melanoma = system: SK-MEL-28 melanoma
SK-MEL-5 melanoma = system: SK-MEL-5 melanoma
SK-OV-3 ovarian = system: SK-OV-3 ovarian
SN12C renal = system: SN12C renal
SNB-19 CNS = system: SNB-19 CNS
SNB-75 CNS = system: SNB-75 CNS
SNB-78 CNS = system: SNB-78 CNS
SW-620 colon = system: SW-620 colon
T-47D breast = system: T-47D breast
TK-10 renal = system: TK-10 renal
U251 CNS = system: U251 CNS
UACC-257 melanoma = system: UACC-257 melanoma
UACC-62 melanoma = system: UACC-62 melanoma
UO-31 renal = system: UO-31 renal
XF 498 CNS = system: XF 498 CNS
HL-60(TB) leukemia = system: HL-60(TB) leukemia
HOP-18 NSCLC = system: HOP-18 NSCLC

Question: `COC1C(CO)OC(n2c3c(Cl)cccc3c3c4c(c5c6cccc(Cl)c6[nH]c5c32)C(=O)NC4=O)C(O)C1O` (configuration not stated) was tested. Which TGI (786-0 renal) did it give?
Answer: 2.32 µM

Question: What about the TGI (A498 renal) of the same compound?
Answer: 0.688 µM

Question: And the TGI (A549 NSCLC)?
Answer: 8.2 µM

Question: And the TGI (ACHN renal)?
Answer: 1.47 µM

Question: What about the TGI (BT-549 breast) of the same compound?
Answer: 12.4 µM

Question: What about the TGI (CAKI-1 renal) of the same compound?
Answer: 0.565 µM

Question: What about the TGI (CCRF-CEM leukemia) of the same compound?
Answer: > 100 µM

Question: What about the TGI (COLO 205 colon) of the same compound?
Answer: 61.4 µM

Question: What about the TGI (DLD-1 colon) of the same compound?
Answer: > 100 µM

Question: And the TGI (DMS 114 small cell lung)?
Answer: > 100 µM

Question: What about the TGI (DMS 273 small cell lung) of the same compound?
Answer: 1.3 µM

Question: And the TGI (DU-145 prostate)?
Answer: 3.29 µM

Question: What about the TGI (EKVX NSCLC) of the same compound?
Answer: > 100 µM

Question: And the TGI (HCC-2998 colon)?
Answer: > 20 µM

Question: And the TGI (HCT-116 colon)?
Answer: 0.781 µM

Question: What about the TGI (HCT-15 colon) of the same compound?
Answer: > 100 µM

Question: And the TGI (HOP-62 NSCLC)?
Answer: 6.63 µM

Question: What about the TGI (HOP-92 NSCLC) of the same compound?
Answer: 4.88 µM

Question: What about the TGI (HS 578T breast) of the same compound?
Answer: > 100 µM

Question: What about the TGI (HT29 colon) of the same compound?
Answer: > 47.3 µM

Question: And the TGI (IGROV1 ovarian)?
Answer: 7.76 µM

Question: What about the TGI (K-562 leukemia) of the same compound?
Answer: > 100 µM

Question: What about the TGI (KM12 colon) of the same compound?
Answer: > 58.6 µM

Question: What about the TGI (KM20L2 colon) of the same compound?
Answer: > 100 µM

Question: And the TGI (LOX IMVI melanoma)?
Answer: 0.289 µM

Question: What about the TGI (LXFL 529 NSCLC) of the same compound?
Answer: > 100 µM

Question: What about the TGI (M14 melanoma) of the same compound?
Answer: 10.7 µM

Question: And the TGI (M19-MEL melanoma)?
Answer: 0.898 µM

Question: And the TGI (MALME-3M melanoma)?
Answer: 1.12 µM

Question: What about the TGI (MCF7 breast) of the same compound?
Answer: 4.86 µM

Question: What about the TGI (MDA-MB-231 breast) of the same compound?
Answer: > 54.7 µM

Question: What about the TGI (MDA-MB-435) of the same compound?
Answer: > 100 µM

Question: And the TGI (MDA-N)?
Answer: 3.15 µM

Question: And the TGI (MOLT-4 leukemia)?
Answer: > 100 µM

Question: And the TGI (NCI-H226 lung)?
Answer: 0.666 µM

Question: And the TGI (NCI-H23 lung)?
Answer: 2.72 µM

Question: And the TGI (NCI-H460 lung)?
Answer: 0.479 µM

Question: What about the TGI (NCI-H522 lung) of the same compound?
Answer: 10.5 µM

Question: What about the TGI (NCI/ADR-RES ovarian) of the same compound?
Answer: > 100 µM

Question: What about the TGI (OVCAR-3 ovarian) of the same compound?
Answer: 6.67 µM

Question: And the TGI (OVCAR-4 ovarian)?
Answer: 18.3 µM

Question: And the TGI (OVCAR-5 ovarian)?
Answer: > 41.9 µM

Question: And the TGI (OVCAR-8 ovarian)?
Answer: 16.6 µM

Question: And the TGI (PC-3 prostate)?
Answer: > 100 µM

Question: What about the TGI (RPMI-8226 leukemia) of the same compound?
Answer: > 18.7 µM

Question: What about the TGI (RXF 393 renal) of the same compound?
Answer: 4.95 µM

Question: And the TGI (RXF-631 renal)?
Answer: 84.3 µM

Question: And the TGI (SF-268 CNS)?
Answer: > 51.7 µM

Question: And the TGI (SF-295 CNS)?
Answer: 4.32 µM

Question: And the TGI (SF-539 CNS)?
Answer: 0.489 µM

Question: And the TGI (SK-MEL-2 melanoma)?
Answer: > 26.3 µM

Question: And the TGI (SK-MEL-28 melanoma)?
Answer: > 73.5 µM

Question: What about the TGI (SK-MEL-5 melanoma) of the same compound?
Answer: 0.321 µM

Question: And the TGI (SK-OV-3 ovarian)?
Answer: > 24.9 µM

Question: And the TGI (SN12C renal)?
Answer: > 29.2 µM

Question: What about the TGI (SNB-19 CNS) of the same compound?
Answer: > 100 µM

Question: And the TGI (SNB-75 CNS)?
Answer: 5.87 µM

Question: And the TGI (SNB-78 CNS)?
Answer: > 100 µM

Question: And the TGI (SW-620 colon)?
Answer: > 100 µM

Question: What about the TGI (T-47D breast) of the same compound?
Answer: > 21.1 µM

Question: And the TGI (TK-10 renal)?
Answer: 19.7 µM

Question: What about the TGI (U251 CNS) of the same compound?
Answer: 5.12 µM

Question: And the TGI (UACC-257 melanoma)?
Answer: 1.75 µM

Question: And the TGI (UACC-62 melanoma)?
Answer: 0.257 µM

Question: What about the TGI (UO-31 renal) of the same compound?
Answer: 2.6 µM

Question: What about the TGI (XF 498 CNS) of the same compound?
Answer: 0.931 µM

Question: Which TGI (786-0 renal) does the source give for `O=C1CCCC(O)=C1SC1=C(O)CCCC1=O` here?
Answer: > 100 µM

Question: And the TGI (A498 renal)?
Answer: > 100 µM

Question: And the TGI (A549 NSCLC)?
Answer: > 100 µM

Question: And the TGI (CAKI-1 renal)?
Answer: > 100 µM

Question: What about the TGI (CCRF-CEM leukemia) of the same compound?
Answer: > 100 µM

Question: What about the TGI (COLO 205 colon) of the same compound?
Answer: > 100 µM

Question: And the TGI (DLD-1 colon)?
Answer: > 100 µM

Question: What about the TGI (DMS 273 small cell lung) of the same compound?
Answer: > 100 µM

Question: What about the TGI (EKVX NSCLC) of the same compound?
Answer: > 100 µM

Question: And the TGI (HCC-2998 colon)?
Answer: > 100 µM

Question: What about the TGI (HCT-116 colon) of the same compound?
Answer: > 100 µM

Question: And the TGI (HCT-15 colon)?
Answer: > 100 µM

Question: What about the TGI (HL-60(TB) leukemia) of the same compound?
Answer: > 100 µM

Question: And the TGI (HOP-18 NSCLC)?
Answer: > 100 µM

Question: And the TGI (HOP-92 NSCLC)?
Answer: > 100 µM

Question: And the TGI (HT29 colon)?
Answer: > 100 µM

Question: And the TGI (IGROV1 ovarian)?
Answer: > 100 µM

Question: And the TGI (K-562 leukemia)?
Answer: > 100 µM

Question: And the TGI (KM12 colon)?
Answer: > 100 µM

Question: What about the TGI (LOX IMVI melanoma) of the same compound?
Answer: > 100 µM

Question: And the TGI (M14 melanoma)?
Answer: > 100 µM

Question: And the TGI (M19-MEL melanoma)?
Answer: > 100 µM

Question: And the TGI (MALME-3M melanoma)?
Answer: > 100 µM

Question: And the TGI (MOLT-4 leukemia)?
Answer: > 100 µM

Question: And the TGI (NCI-H226 lung)?
Answer: > 100 µM

Question: What about the TGI (NCI-H23 lung) of the same compound?
Answer: > 100 µM

Question: And the TGI (NCI-H522 lung)?
Answer: > 100 µM

Question: And the TGI (OVCAR-3 ovarian)?
Answer: > 100 µM

Question: What about the TGI (OVCAR-4 ovarian) of the same compound?
Answer: > 100 µM

Question: And the TGI (OVCAR-5 ovarian)?
Answer: > 100 µM

Question: What about the TGI (OVCAR-8 ovarian) of the same compound?
Answer: > 100 µM

Question: What about the TGI (RPMI-8226 leukemia) of the same compound?
Answer: > 100 µM

Question: What about the TGI (RXF 393 renal) of the same compound?
Answer: > 100 µM

Question: And the TGI (RXF-631 renal)?
Answer: > 100 µM

Question: And the TGI (SF-268 CNS)?
Answer: > 100 µM

Question: And the TGI (SF-295 CNS)?
Answer: > 100 µM

Question: What about the TGI (SF-539 CNS) of the same compound?
Answer: > 100 µM

Question: And the TGI (SK-MEL-2 melanoma)?
Answer: > 100 µM

Question: And the TGI (SK-MEL-28 melanoma)?
Answer: > 100 µM

Question: And the TGI (SK-MEL-5 melanoma)?
Answer: > 100 µM

Question: And the TGI (SK-OV-3 ovarian)?
Answer: > 100 µM

Question: And the TGI (SN12C renal)?
Answer: > 100 µM

Question: And the TGI (SNB-19 CNS)?
Answer: > 100 µM

Question: What about the TGI (SNB-75 CNS) of the same compound?
Answer: > 100 µM

Question: What about the TGI (SNB-78 CNS) of the same compound?
Answer: > 100 µM

Question: What about the TGI (SW-620 colon) of the same compound?
Answer: > 100 µM

Question: What about the TGI (TK-10 renal) of the same compound?
Answer: > 100 µM

Question: And the TGI (U251 CNS)?
Answer: > 100 µM

Question: And the TGI (UACC-257 melanoma)?
Answer: > 100 µM

Question: And the TGI (UACC-62 melanoma)?
Answer: > 100 µM

Question: What about the TGI (UO-31 renal) of the same compound?
Answer: > 100 µM
